Reference: patent publication US7396655B2, “Method for enhancing activity of luciferase with fluorescence activity” (Chisso Corporation, priority 2005, dated 2008)
Counter-ions that a name gives are not always drawn. Like-named read-outs stand apart in the source and are kept apart here.

Legend:
BFP-aq [1] = target: T1, BFP-aq (Aequorea victoria, UniProt P07164); assay type: biochemical; set-up: The recombinant apoaequorins encoded by piP-HE is composed of 191 amino acids, whose N-terminus starts from Ala-Asn-Ser-; made in house; host or cells: E. coli strain WA802; conditions: for Relative luminescence activity Imax (%) / Relative luminescence activity Initial velocity (%): substrate 1 μg, BFP-aq 1.2 μg, pH 8.0, coelenterazine without imidazole = 100%
Experimental: 200 μl of this solution was placed in five vessels, to each of which 1 μg of the substrate coelenterazine (CTZ) and its four analogs: h-CTZ, cp-CTZ, hcp-CTZ, f-CTZ were added.

BFP-aq [2] = target: T1, BFP-aq; experiment: biochemical; assay type: biochemical; set-up: The recombinant apoaequorins encoded by piP-HE is composed of 191 amino acids, whose N-terminus starts from Ala-Asn-Ser-; made in house; host or cells: E. coli strain WA802; conditions: for Luminescence activity (%) Imax: 50 mM Tris-HCl pH 8.0, 25° C., coelenterazine 1 μg, no compound = 100%
Experimental: (§1) Solutions of 50 mM Tris-HCl (pH 8.0), each containing various commercial organic compounds shown in Table 3, were prepared and pre-warmed at 25° C. The substrate coelenterazine (1 μg) was added to the solutions (200 μl) containing each of these compounds.

[3] = target: T2, BFP-aq, luciferase with fluorescence activity derived from aequorin (recombinant apoaequorin, SEQ ID NO: 1 with N-terminal Val replaced by Ala-Asn-Ser; complex with coelenteramide and calcium ions) (Aequorea victoria, UniProt P02592); experiment: Enhancing effect of organic compounds on BFP-aq luminescence with coelenterazine as substrate (Table 4); assay type: biochemical; conditions: pH 8.0, 25° C., no addition = 100%; for activity at 30000 µM: 30 mM compound; for activity at 150000 µM: 150 mM compound; for activity at 300000 µM: 300 mM compound; for activity at 3 M: 3000 mM compound
T2 construct: The recombinant apoaequorins encoded by piP-HE is composed of 191 amino acids, whose N-terminus starts from Ala-Asn-Ser-; made in house; host or cells: E. coli strain WA802 (expression vector piP-HE)
T2 sequence (P02592 with tags, fused parts or gaps): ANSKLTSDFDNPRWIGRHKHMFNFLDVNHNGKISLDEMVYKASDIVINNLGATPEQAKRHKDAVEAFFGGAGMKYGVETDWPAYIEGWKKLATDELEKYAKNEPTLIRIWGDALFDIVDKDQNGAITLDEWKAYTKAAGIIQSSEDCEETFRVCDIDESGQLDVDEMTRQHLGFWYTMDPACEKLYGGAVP
Source text: To obtain recombinant apoaequorins, the apoaequorin gene expression vector piP-HE (Japanese Laid-Open Application No. 1989-132397) constructed from pAQ440 harboring the apoaequorin gene (Japanese Laid-Open Application No. 1986-135586) was used. The recombinant apoaequorins encoded by piP-HE is composed of 191 amino acids, whose N-terminus starts from Ala-Asn-Ser-(Val of the N-terminus of SEQ ID NO: 1 in the sequence listing was replaced by Ala-Asn-Ser-).
In a VIVASPIN 2 column, the concentrated aequorin solution was overlaid with 0.9 ml of 50 mM Tris-HCl (pH 7.6) containing 5 mM calcium chloride (Wako Pure Chemicals Industries, Ltd.) and 2 mM dithiothreitol (Wako Pure Chemicals Industries, Ltd.) to trigger continuous light emission and the column was allowed to stand at […] for 24 hours or longer. […] Further, 2 ml of 50 mM Tris-HCI (pH 7.6) containing 5 mM calcium chloride (Wako Pure Chemicals Industries, Ltd.) and 2 mM dithiothreitol (Wako Pure Chemicals Industries, Ltd.) was loaded onto the VIVASPIN 2 column and the column was centrifuged under the identical conditions and then washed.
as §1

[4] = cited from earlier work
[5] = substrate: Oc1ccc(Cc2nc3c(Cc4ccccc4)nc(-c4ccc(O)cc4)cn3c2O)cc1; experiment: Light-emitting reaction rate of BFP-aq, Lineweaver-Burk plot (Table 6); assay type: biochemical, Aequorea victoria; conditions: other: coelenterazine, pH 8.0, 25° C.
[6] = pH 8, read-out: Luminescence activity (%) Imax
[7] = pH 8, read-out: Luminescence activity (%) Initial velocity
[8] = read-out: Luminescence activity, Imax
[9] = read-out: Luminescence activity, initial velocity

For `O=c1c(Cc2ccc(F)cc2)nc2c(Cc3ccccc3)[nH]c(-c3ccc(O)cc3)cn1-2` [f-Coelenterazine], the “Suitability as substrate in the BFP-aq light-emitting reaction system” value (“Suitability as substrate” below) (BFP-aq [1]) was “served as effective substrates”.

`CCN(CC)CC` [Triethylamine] showed an activity at 30000 µM (BFP-aq [2]; [6]) of 68%, an activity at 150000 µM (BFP-aq [2]; [6]) of 8% and an activity at 30000 µM (BFP-aq [2]; [7]) of 68%. It also gave an activity at 150000 µM (BFP-aq [2]; [7]) of 12%.

In the case of `NCCCC[C@H](N)C(=O)O` [L-Lysine], the activity at 30000 µM (BFP-aq [2]; [6]) is reported as 60%, the activity at 150000 µM (BFP-aq [2]; [6]) is reported as 1% and the activity at 30000 µM (BFP-aq [2]; [7]) is reported as 66%. For the same molecule, the activity at 150000 µM (BFP-aq [2]; [7]) was 10%.

`N=C(N)NCCC[C@H](N)C(=O)O` [L-Arginine] gave an activity at 30000 µM (BFP-aq [2]; [6]) of 62%, an activity at 150000 µM (BFP-aq [2]; [6]) of 1% and an activity at 30000 µM (BFP-aq [2]; [7]) of 73%. It also gave an activity at 150000 µM (BFP-aq [2]; [7]) of 4%.

With `O=c1c(Cc2ccccc2)nc2c(Cc3ccccc3)[nH]c(-c3ccc(O)cc3)cn1-2` [h-Coelenterazine] the “Suitability as substrate” value (BFP-aq [1]) was “served as effective substrates”.

In the case of `O=c1c(Cc2ccccc2)nc2c(CC3CCCC3)[nH]c(-c3ccc(O)cc3)cn1-2` [hcp-Coelenterazine], the “Suitability as substrate” value (BFP-aq [1]) is reported as “served as effective substrates”, the “Imax relative to coelenterazine without imidazole” value (BFP-aq [1]; with 150 mM imidazole) is reported as 4 fold and the “Velocity of light-emitting reaction relative to coelenterazine without imidazole” value (BFP-aq [1]; with 150 mM imidazole) is reported as 25 fold.

`N=C(N)N` [Guanidine/hydrochloride] gave an activity at 30000 µM [3, 8] of 92%, an activity at 30000 µM [3, 9] of 130% and an activity at 150000 µM [3, 8] of 109%. The activity at 150000 µM [3, 9] was 226%, the activity at 300000 µM [3, 8] was 65% and the activity at 300000 µM [3, 9] was 118%. The “Luminescence activity (%) Imax” value (BFP-aq [2]; compound 30 mM) was 92%, the “Luminescence activity (%) Imax” value (BFP-aq [2]; compound 150 mM) was 109% and the “Luminescence activity (%) Imax” value (BFP-aq [2]; compound 300 mM) was 65%.

In the case of `C[C@H](N)C(=O)O` [L-Alanine], the activity at 30000 µM (BFP-aq [2]; [6]) is reported as 88%, the activity at 150000 µM (BFP-aq [2]; [6]) is reported as 77% and the activity at 30000 µM (BFP-aq [2]; [7]) is reported as 82%. The activity at 150000 µM (BFP-aq [2]; [7]) was 59%.

Molecule `N[C@@H](Cc1c[nH]cn1)C(=O)O` [L-Histidine] has an activity at 30000 µM (BFP-aq [2]; [6]) of 37%, an activity at 150000 µM (BFP-aq [2]; [6]) of 5% and an activity at 30000 µM (BFP-aq [2]; [7]) of 82%. It also gave an activity at 150000 µM (BFP-aq [2]; [7]) of 27%.

`CC(N)=O` [Acetamide/hydrochloride] showed an activity at 30000 µM [3, 8] of 73%, an activity at 30000 µM [3, 9] of 132% and an activity at 150000 µM [3, 8] of 31%. The activity at 150000 µM [3, 9] was 44%, the activity at 300000 µM [3, 8] was 55% and the activity at 300000 µM [3, 9] was 95%. The “Luminescence activity (%) Imax” value (BFP-aq [2]; compound 30 mM) was 73%, the “Luminescence activity (%) Imax” value (BFP-aq [2]; compound 150 mM) was 31% and the “Luminescence activity (%) Imax” value (BFP-aq [2]; compound 300 mM) was 55%.

In the case of `Cc1c[nH]cn1` [4-Methylimidazole], the pKa [4] is given as 7.5, the activity at 30000 µM (BFP-aq [2]; [6]) is given as 88% and the activity at 150000 µM (BFP-aq [2]; [6]) is given as 78%. It also gave an activity at 30000 µM (BFP-aq [2]; [7]) of 92% and an activity at 150000 µM (BFP-aq [2]; [7]) of 95%.

For `NCC(=O)O` [L-Glycine], the activity at 30000 µM [3, 8] was 87%, the activity at 30000 µM [3, 9] was 104% and the activity at 150000 µM [3, 8] was 83%. For the same molecule, the activity at 150000 µM [3, 9] was 78%, the pKa [4] was 6.0 and the “Luminescence activity (%) Imax” value (BFP-aq [2]; compound 30 mM) was 87%. The “Luminescence activity (%) Imax” value (BFP-aq [2]; compound 150 mM) was 83%.

In the case of `NCCc1c[nH]cn1` [Histamine], the pKa [4] is listed as 8.0, the activity at 30000 µM (BFP-aq [2]; [6]) is listed as 69% and the activity at 150000 µM (BFP-aq [2]; [6]) is listed as 22%. For the same molecule, the activity at 30000 µM (BFP-aq [2]; [7]) was 92% and the activity at 150000 µM (BFP-aq [2]; [7]) was 26%.

With `Cc1ncc[nH]1` [2-Methylimidazole] the activity at 30000 µM (BFP-aq [2]; [6]) was 63%, the activity at 150000 µM (BFP-aq [2]; [6]) was 16% and the activity at 30000 µM (BFP-aq [2]; [7]) was 83%. For the same molecule, the activity at 150000 µM (BFP-aq [2]; [7]) was 21%.

In the case of `O=C(O)/C=C/c1c[nH]cn1` [Urocanic acid], the pKa [4] is listed as 5.8, the activity at 30000 µM (BFP-aq [2]; [6]) is listed as 44% and the activity at 30000 µM (BFP-aq [2]; [7]) is listed as 31%.

With `O=c1c(Cc2ccc(O)cc2)nc2c(CC3CCCC3)[nH]c(-c3ccc(O)cc3)cn1-2` [cp-Coelenterazine] the “Suitability as substrate” value (BFP-aq [1]) was “served as effective substrates”, the “Relative luminescence activity Imax (%)” value (BFP-aq [1]; with 150 mM imidazole) was 138% and the “Relative luminescence activity Initial velocity (%)” value (BFP-aq [1]; with 150 mM imidazole) was 535%. The “Relative luminescence activity Imax (%)” value (BFP-aq [1]; without imidazole) was 54% and the “Relative luminescence activity Initial velocity (%)” value (BFP-aq [1]; without imidazole) was 152%.

Work on `NC(N)=O` [Urea] yielded an activity at 30000 µM [3, 8] of 84%, an activity at 30000 µM [3, 9] of 113% and an activity at 150000 µM [3, 8] of 89%. The activity at 150000 µM [3, 9] was 104%, the activity at 3 M [3, 8] was 29% and the activity at 3 M [3, 9] was 57%. The “Luminescence activity (%) Imax” value (BFP-aq [2]) was 29%, the “Luminescence activity (%) Imax” value (BFP-aq [2]; compound 30 mM) was 84% and the “Luminescence activity (%) Imax” value (BFP-aq [2]; compound 150 mM) was 89%.

For `NC(=O)c1nc[nH]c1N` [5-Amino-imidazole-4-carboxamide/hydrochloride], the activity at 30000 µM [3, 8] was 64%, the activity at 30000 µM [3, 9] was 48% and the activity at 150000 µM [3, 8] was 0%. The activity at 150000 µM [3, 9] was 2%, the “Luminescence activity (%) Imax” value (BFP-aq [2]; compound 30 mM) was 64% and the “Luminescence activity (%) Imax” value (BFP-aq [2]; compound 150 mM) was 0%.

B1: BFP-aq, luciferase with fluorescence activity derived from aequorin (recombinant apoaequorin, SEQ ID NO: 1 with N-terminal Val replaced by Ala-Asn-Ser; complex … (protein)
chain: MTSKQYSVKLTSDFDNPRWIGRHKHMFNFLDVNHNGKISLDEMVYKASDIVINNLGATPEQAKRHKDAVEAFFGGAGMKYGVETDWPAYIEGWKKLATDELEKYAKNEPTLIRIWGDALFDIVDKDQNGAITLDEWKAYTKAAGIIQSSEDCEETFRVCDIDESGQLDVDEMTRQHLGFWYTMDPACEKLYGGAVP
notes: The recombinant apoaequorins encoded by piP-HE is composed of 191 amino acids, whose N-terminus starts from Ala-Asn-Ser-; made in house; host or cells: E. coli strain WA802 (expression vector piP-HE)
Work on B1 yielded a Km ([5]; with 150 mM imidazole) of 9.2 μM μM and a Km ([5]; without imidazole) of 9.6 μM μM.
